These results are taken from PubChem BioAssay (NCI).

Some test systems named below: DLD-1 colon; KM20L2 colon; LXFL 529 NSCLC; DMS 114 small cell lung; SNB-19 CNS; RXF 393 renal; EKVX NSCLC; XF 498 CNS; 786-0 renal; SNB-78 CNS; M19-MEL melanoma; DMS 273 small cell lung; MALME-3M melanoma; SF-539 CNS; MDA-N; T-47D breast; HS 578T breast; BT-549 breast; HOP-18 NSCLC.
Common to all, as to test: NCI tumour cell line growth inhibition, 48 h

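Tested at 5 concentrations; 48 h exposure; 96-well plates; endpoints linearly interpolated, else capped at highest concentration. Definition used: TGI = concentration required for complete inhibition of growth.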

With `CC(C)=CCOc1ccc(-c2coc3cc4c(c(O)c3c2=O)C=CC(C)(C)O4)cc1`, the TGI with DLD-1 colon, with KM20L2 colon, in the assay on LXFL 529 NSCLC, in the assay on DMS 114 small cell lung, in the assay with SNB-19 CNS and in the assay on RXF 393 renal was over 100 µM in each case. Further, the TGI in the assay on EKVX NSCLC, in the assay on XF 498 CNS, with 786-0 renal, in the assay with SNB-78 CNS and with M19-MEL melanoma was over 100 µM each time.

`CCOC(=O)c1ccn2c(c1)c(C#N)c1nc3ccccc3nc12`: the TGI in the assay with DLD-1 colon, in the assay on DMS 273 small cell lung, in the assay on KM20L2 colon, in the assay with LXFL 529 NSCLC, in the assay on MALME-3M melanoma and in the assay with DMS 114 small cell lung was over 100 µM throughout. Besides, the TGI with SNB-19 CNS is over 100 µM; with EKVX NSCLC it was over 100 µM; in the assay on XF 498 CNS, 93.3 µM; in the assay on 786-0 renal it was over 100 µM; in the assay on SNB-78 CNS it was 57.6 µM; with SF-539 CNS, over 100 µM. In addition, in the assay on M19-MEL melanoma, the TGI is over 100 µM.

Regarding `CC(O)C1OC(n2ccc(=O)[nH]c2=O)CC1n1cncn1` (stereo not given), the TGI with DLD-1 colon, in the assay with DMS 273 small cell lung, in the assay with KM20L2 colon, in the assay on LXFL 529 NSCLC, in the assay with MALME-3M melanoma and in the assay with DMS 114 small cell lung was over 100 µM throughout. Further, the TGI in the assay with SNB-19 CNS, in the assay with RXF 393 renal, in the assay with EKVX NSCLC, in the assay with XF 498 CNS, in the assay on 786-0 renal and with M19-MEL melanoma was over 100 µM in each case.

As to `COC(=O)[C@H](C)N(C)C(=O)[C@H](C)N1[C@@H](c2ccccc2)COC1(C)C`, the TGI in the assay on MDA-N, in the assay with MALME-3M melanoma, in the assay on SNB-19 CNS, in the assay with T-47D breast, with RXF 393 renal and in the assay with EKVX NSCLC was over 100 µM throughout. In addition, the TGI with HS 578T breast, in the assay with 786-0 renal, with SF-539 CNS and with BT-549 breast was over 100 µM throughout.

Take `COc1ccc(C2=NN(C(=O)c3ccc(Cl)cc3)C(O)(c3cc(F)c(Cl)cc3Cl)C2)cc1` (stereo not given): the TGI with MDA-N, in the assay on MALME-3M melanoma, in the assay on SNB-19 CNS, in the assay with T-47D breast, in the assay on RXF 393 renal and with EKVX NSCLC was over 100 µM throughout. The TGI in the assay with HS 578T breast, in the assay with 786-0 renal, in the assay on SF-539 CNS and in the assay with BT-549 breast was over 100 µM in each case.

For `O=C1C2C3C=C4c5ccccc5N(c5ccccc5)C4([C@@H]2C(=O)N1c1ccc(F)cc1)[C@H]1C(=O)N(c2ccc(F)cc2)C(=O)[C@@H]31` (stereo not given in full), the TGI in the assay with DLD-1 colon, with HOP-18 NSCLC, with MALME-3M melanoma, in the assay on DMS 114 small cell lung, with SNB-19 CNS and in the assay on RXF 393 renal was over 100 µM throughout. Also, the TGI in the assay on EKVX NSCLC, with XF 498 CNS, in the assay with 786-0 renal, in the assay with SNB-78 CNS, in the assay on SF-539 CNS and with M19-MEL melanoma was over 100 µM each time.

With `COc1cc2c(cc1OC)[C@H]1C(COC(=O)Nc3ccccc3)CN1CC2` (stereo not given in full), the TGI in the assay on DLD-1 colon, in the assay with DMS 273 small cell lung, in the assay with LXFL 529 NSCLC, with HOP-18 NSCLC, in the assay on MALME-3M melanoma and in the assay on SNB-19 CNS was over 100 µM in each case. Besides, the TGI in the assay on RXF 393 renal, with 786-0 renal, with SF-539 CNS and with M19-MEL melanoma was over 100 µM throughout.

Regarding `COc1ccc(/C=C/c2nc(=S)[nH][nH]2)cc1OC`, the TGI with DLD-1 colon, in the assay with DMS 273 small cell lung, in the assay with KM20L2 colon, in the assay on LXFL 529 NSCLC, in the assay with MALME-3M melanoma and in the assay with DMS 114 small cell lung was over 100 µM throughout. For the same compound, the TGI in the assay with SNB-19 CNS, in the assay on RXF 393 renal, in the assay with XF 498 CNS, with 786-0 renal, in the assay on SNB-78 CNS and in the assay on SF-539 CNS was over 100 µM throughout. In addition, in the assay with M19-MEL melanoma, the TGI is over 100 µM.

Turning to `C=CCN1C(=O)CS/C1=N\NC(=O)CSc1nc2ccccc2c(=O)n1CC`, the TGI in the assay on MDA-N, with MALME-3M melanoma, with SNB-19 CNS, in the assay with T-47D breast, with RXF 393 renal and in the assay on EKVX NSCLC was over 100 µM in each case. Besides, the TGI with HS 578T breast, with 786-0 renal, in the assay with SF-539 CNS and with BT-549 breast was over 100 µM in each case.

`CC1OC(CC2C=CCc3c(O)c4c(c(O)c32)C(=O)c2ccccc2C4=O)CC(NC(=O)C(F)(F)F)C1O` (stereo not given): the TGI in the assay on DLD-1 colon came to 20 µM; in the assay on DMS 273 small cell lung, 19.7 µM; with KM20L2 colon it was 55.3 µM; with LXFL 529 NSCLC, 20.4 µM; in the assay on MALME-3M melanoma, 10.1 µM; with DMS 114 small cell lung, 26.8 µM. The TGI in the assay with SNB-19 CNS was 18.7 µM; with RXF 393 renal it was 7.77 µM; in the assay with EKVX NSCLC it was 25.7 µM; in the assay on XF 498 CNS, 14.6 µM; in the assay on 786-0 renal, 23.2 µM; in the assay with SNB-78 CNS, 14.9 µM. The values for the TGI in the assay on SF-539 CNS and with M19-MEL melanoma were 15 µM and 21.1 µM, respectively.

Regarding `COC(=O)[C@@H]1[C@H]2CC[C@]3(C)[C@@H](OC(C)=O)CC[C@H]3[C@@H]2CC[C@H]1C(C)=O`, the TGI with MDA-N, in the assay with MALME-3M melanoma, in the assay with SNB-19 CNS, with T-47D breast, with RXF 393 renal and with EKVX NSCLC was over 100 µM each time. Further, the TGI in the assay with HS 578T breast, in the assay on 786-0 renal, with SF-539 CNS and with BT-549 breast was over 100 µM each time.

Take `COC1(OC)C2C=CC1C([C@](C)(N)CO)C2` (stereo not given in full): the TGI in the assay with MDA-N, with MALME-3M melanoma, in the assay with SNB-19 CNS, in the assay with T-47D breast, in the assay on RXF 393 renal and in the assay on EKVX NSCLC was over 100 µM in each case. Also, the TGI in the assay with HS 578T breast, with 786-0 renal, in the assay with SF-539 CNS and in the assay with BT-549 breast was over 100 µM in each case.
